Experiments:
[1] = milli-Q water, room temperature, natural pH; ref Franquet-Griell et al. [2017]; cited from earlier work
[2] = ref Gómez-Canela et al. [2015], cited from earlier work
[3] = design: method as in Białk-Bielińska et al. [2017]; conditions: ref Białk-Bielińska et al. [2017]; cited from earlier work
physchem = conditions: for Hydrolytic stability in the preliminary test: pH 4, 7 and 9, 50 °C
Experimental: The incubation was performed in the dark, in order to avoid the influence of the photolysis on degradation of the analytes. The water used for the preparation of buffers was autoclaved, all glassware was clean, flushed with methanol, and dried in high temperature. Samples were closed in glass tubes with a sealed cap. The air from above the solution was removed by a nitrogen stream just before capping. In the preliminary test, solutions of single analytes were prepared in each tested pH: 4, 7, and 9, which is required by the OECD guidelines. There was also a blank sample prepared for each pH. Samples in the preliminary test were prepared in two parallel replicates. Moreover, the complete preliminary test was repeated twice. The preliminary test was performed at 50 °C for 5 days. […] In the case of the extended tests, 7 measuring points were provided during the time of the test. Each measuring point was performed in two parallel replicates. […] The test was conducted for 30 days or to 90 % elimination of a compound. Obtained results were used to determine the hydrolysis rate constant (k) using equation: 1 lnCt/C0=kt
The HPLC-UV/Vis technique was applied to determine the level of hydrolytic degradation of the analytes. In the preliminary test, the control and blank samples were analyzed at the beginning and the end of the test. […] In the extended test, the samples collected in the time intervals were analyzed, and peak areas were compared to those obtained at the beginning of the test. This was used to determine the kinetic of this hydrolysis process by using the Equation 1. In general, each analyte was analyzed by a simple HPLC method with UV/Vis detection. Gemini C18 (Phenomenex, USA), 5 μm, 110 Å, 150 mm × 4.6 mm chromatographic column was applied for each method and three different mobile phases were used (water or 0.1 % HCOOH) mixed with the acetonitrile. The conditions applied during the LC-MS analysis with an ion trap detector for the qualitative analysis of the samples collected after the extended tests at 20 and 70 °C are presented in the Table S2.

[4] = design: method as in Negreira et al. ([2013b]); conditions: acidification of samples, organic modifier such as 50 % methanol or DMSO, previously tested conditions; ref Negreira et al. ([2013b]); cited from earlier work
[5] = HPLC water with 4 % DMSO, ref Negreira et al. ([2013a]), cited from earlier work

Structure (SMILES): CC[C@]1(O)C[C@H]2CN(CCc3c([nH]c4ccccc34)[C@@](C(=O)OC)(c3cc4c(cc3OC)N(C=O)[C@H]3[C@@](O)(C(=O)OC)[C@H](OC(C)=O)[C@]5(CC)C=CCN6CC[C@]43[C@@H]65)C2)C1 [vincristine]
- Hydrolytic stability in milli-Q water [1]: highly unstable

Structure (SMILES): O=C(O)CCCc1ccc(N(CCCl)CCCl)cc1 [chlorambucil]
- Remaining part degraded within 24 h ([2]; hard water, initial concentration 10 ng μL^−1, within 24 h): 19%
- Transformed at the beginning of the test ([2]; hard water, initial concentration 10 ng μL^−1): 81%
- Transformation in hard water ([2]; initial concentration 2 ng μL^−1): instant and complete transformation
- Hydrolytic stability in milli-Q water [1]: highly unstable

Structure (SMILES): CN(Cc1nc2c(N)nc(N)nc2nc1O)c1ccc(C(=O)N[C@@H](CCC(=O)O)C(=O)O)cc1 [7-OH-MTX, 7-hydroxymethotrexate]
- Hydrolytic stability under ecotoxicological test conditions [3]: hydrolytically stable
- Photolytic stability under ecotoxicological test conditions [3]: susceptible to photolysis
- half-life (physchem; aqueous buffer): ≥ 365 days
- Hydrolytic stability in the preliminary test (physchem; 5 days): hydrolytically stable
- Degradation level in the preliminary test (physchem; pH 4, 50 °C, 5 days, dark): 7%
- Stability after acidification and with organic modifier [4]: stable
- Remained intact ([5]; 4 °C, 24 h): 86%
- Concentration decreased to ([5]; 4 °C, after 9 days): around 50%
- Stability in 24 h test ([5]; 15 °C, 24 h): none of the 7-OH-MTX left in the solution
- Degradation level / loss ([5]; 25 °C, 24 h incubation): full degradation

Structure (SMILES): COc1cccc2c1C(=O)c1c(O)c3c(c(O)c1C2=O)C[C@@](O)(C(C)=O)C[C@@H]3O[C@H]1C[C@H](N)[C@H](O)[C@H](C)O1 [daunorubicin]
- Hydrolytic stability in milli-Q water [1]: highly unstable

Structure (SMILES): COc1cccc2c1C(=O)c1c(O)c3c(c(O)c1C2=O)C[C@@](O)(C(=O)CO)C[C@@H]3O[C@H]1C[C@H](N)[C@H](O)[C@H](C)O1 [doxorubicin]
- Hydrolytic stability in milli-Q water [1]: highly unstable

Structure (SMILES): CCc1c2c(nc3ccc(OC(=O)N4CCC(N5CCCCC5)CC4)cc13)-c1cc3c(c(=O)n1C2)COC(=O)[C@]3(O)CC [irinotecan]
- Hydrolytic stability in milli-Q water [1]: highly unstable

Structure (SMILES): Cc1ccc(NC(=O)c2ccc(CN3CCN(C)CC3)cc2)cc1Nc1nccc(-c2cccnc2)n1 [IMT, imatinib]
- Hydrolytic stability in the preliminary test (physchem; 5 days): hydrolytically stable

Structure (SMILES): COc1c(C)c2c(c(O)c1C/C=C(\C)CCC(=O)O)C(=O)OC2 [mycophenolic acid]
- Hydrolytic stability in milli-Q water [1]: stable

Structure (SMILES): N[C@@H](Cc1ccc(N(CCCl)CCCl)cc1)C(=O)O [melphalan]
- Hydrolytic stability in milli-Q water [1]: highly unstable

Structure (SMILES): CCCCCOC(=O)Nc1nc(=O)n([C@@H]2O[C@H](C)[C@@H](O)[C@H]2O)cc1F [capecitabine]
- Hydrolytic stability in milli-Q water [1]: stable

Structure (SMILES): Nc1ccn([C@@H]2O[C@H](CO)[C@@H](O)C2(F)F)c(=O)n1 [gemcitabine]
- Hydrolytic stability in milli-Q water [1]: stable

From paper PMC8536627, “Hydrolytic stability of anticancer drugs and one metabolite in the aquatic environment” (Environmental Science and Pollution Research International, 2021)
